Where two headings read alike, the source gives them in different places.

One assay deals with EGFR^wt kinase (Homo sapiens, UniProt P00533). In words: EGFR^wt kinase inhibition assay (BPS Kinase Assay Kit, Kinase-Glo). (Kinase-Glo measures the ATP left after a reaction by luminescence.)
In the next assay the target is T1, aromatase (CYP19A) (Homo sapiens, UniProt P11511).
T1 construct: purchased Bio Vision
T1 sequence (P11511 1-503): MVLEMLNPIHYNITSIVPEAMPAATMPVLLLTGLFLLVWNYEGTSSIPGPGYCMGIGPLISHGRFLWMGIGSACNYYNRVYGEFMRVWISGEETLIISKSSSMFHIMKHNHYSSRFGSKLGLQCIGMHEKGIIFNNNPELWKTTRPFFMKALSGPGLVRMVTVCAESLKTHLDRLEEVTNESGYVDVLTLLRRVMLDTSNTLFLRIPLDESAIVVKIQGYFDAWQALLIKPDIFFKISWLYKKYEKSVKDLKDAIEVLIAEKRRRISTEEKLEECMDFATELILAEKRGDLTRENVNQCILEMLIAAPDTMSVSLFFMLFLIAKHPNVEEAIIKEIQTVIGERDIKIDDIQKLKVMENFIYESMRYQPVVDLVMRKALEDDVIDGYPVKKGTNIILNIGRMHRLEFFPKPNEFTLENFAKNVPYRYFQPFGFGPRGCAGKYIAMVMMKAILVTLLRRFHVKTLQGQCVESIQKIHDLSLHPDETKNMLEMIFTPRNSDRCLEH
In words: Aromatase (CYP19A) inhibitor screening kit (fluorometric). In kind it is biochemical. The method, then:
Breast cancer is mostly reliant on estrogen or progesterone, especially in postmenopausal females. […] Aromatase is the key enzyme that acts on androgen precursors for the synthesis of estrogen. Aromatase inhibitors are used to either block the production of estrogen or block the action of estrogen on its receptors and for treatment of estrogen dependant breast cancer.[32,33]
The compounds were dissolved in DMSO in concentrations ranging from 10 to 10^4 nM. The recombinant human aromatase stock was prepared according to the protocol and the samples were added and the plate was incubated for 10 min at 37 °C to allow tested compounds to interact with the aromatase.
(§1) Results are expressed as mean ± standard deviation (SD) based on triplicate experiments. The IC50 values of the tested compounds were determined using curve fitting in the R programming language and associated packages including Magrittr,[45] drc[46] and ggplot2.[47] Graphs and figures were generated using R console and PyMOL (PyMOL Molecular Graphics System, Schrödinger).

Another assay concerns MCF-7 cell line. In words: MTT cytotoxicity assay in breast cancer cell line (MCF-7). In kind it is cell-based. To be noted: Homo sapiens, read-out: IC50 on MCF-7 cell lines. The method, then: The cytotoxic effect of the isolated compounds from C. papaya on MCF-7 cells line was evaluated using MTT assay which measures metabolic activity as an indicator of cellular viability and proliferation.
Briefly, breast cancer cell line (MCF-7) were obtained from American Type Culture Collection and cultured in DMEM medium (Invitrogen/Life Technologies) supplemented with 10% FBS (Hyclone, USA). Insulin (10 μg mL^−1, Sigma-Aldrich, USA) and 1% penicillin–streptomycin. the cells were seeded in 96-well plates (VWR, Switzerland) at cell density 1.2–1.8 × 10^4 cells per well. […] After treatments, the medium was removed from all wells of the plate and 20 μL of the MTT reagent (Sigma-Aldrich, USA) (0.5 mg mL^−1) in PBS was added and incubated for 3.5 h at 37 °C. The solution was removed and 50 μL of DMSO was added, incubated for 5 min and the absorbance was measured at 570 nm.
as §1
In general terms: Formazan colour is commonly taken as a measure of viable cells.

The mark [1] stands for this setting: in vitro enzymatic inhibition, recombinant human aromatase, mean ± SD, read-out: IC50 Aromatase.
[2] abbreviates: MCF7, MTT assay, 24 h treatment, mean ± SD.

Chain of EGFR^wt kinase (P00533 25-1210): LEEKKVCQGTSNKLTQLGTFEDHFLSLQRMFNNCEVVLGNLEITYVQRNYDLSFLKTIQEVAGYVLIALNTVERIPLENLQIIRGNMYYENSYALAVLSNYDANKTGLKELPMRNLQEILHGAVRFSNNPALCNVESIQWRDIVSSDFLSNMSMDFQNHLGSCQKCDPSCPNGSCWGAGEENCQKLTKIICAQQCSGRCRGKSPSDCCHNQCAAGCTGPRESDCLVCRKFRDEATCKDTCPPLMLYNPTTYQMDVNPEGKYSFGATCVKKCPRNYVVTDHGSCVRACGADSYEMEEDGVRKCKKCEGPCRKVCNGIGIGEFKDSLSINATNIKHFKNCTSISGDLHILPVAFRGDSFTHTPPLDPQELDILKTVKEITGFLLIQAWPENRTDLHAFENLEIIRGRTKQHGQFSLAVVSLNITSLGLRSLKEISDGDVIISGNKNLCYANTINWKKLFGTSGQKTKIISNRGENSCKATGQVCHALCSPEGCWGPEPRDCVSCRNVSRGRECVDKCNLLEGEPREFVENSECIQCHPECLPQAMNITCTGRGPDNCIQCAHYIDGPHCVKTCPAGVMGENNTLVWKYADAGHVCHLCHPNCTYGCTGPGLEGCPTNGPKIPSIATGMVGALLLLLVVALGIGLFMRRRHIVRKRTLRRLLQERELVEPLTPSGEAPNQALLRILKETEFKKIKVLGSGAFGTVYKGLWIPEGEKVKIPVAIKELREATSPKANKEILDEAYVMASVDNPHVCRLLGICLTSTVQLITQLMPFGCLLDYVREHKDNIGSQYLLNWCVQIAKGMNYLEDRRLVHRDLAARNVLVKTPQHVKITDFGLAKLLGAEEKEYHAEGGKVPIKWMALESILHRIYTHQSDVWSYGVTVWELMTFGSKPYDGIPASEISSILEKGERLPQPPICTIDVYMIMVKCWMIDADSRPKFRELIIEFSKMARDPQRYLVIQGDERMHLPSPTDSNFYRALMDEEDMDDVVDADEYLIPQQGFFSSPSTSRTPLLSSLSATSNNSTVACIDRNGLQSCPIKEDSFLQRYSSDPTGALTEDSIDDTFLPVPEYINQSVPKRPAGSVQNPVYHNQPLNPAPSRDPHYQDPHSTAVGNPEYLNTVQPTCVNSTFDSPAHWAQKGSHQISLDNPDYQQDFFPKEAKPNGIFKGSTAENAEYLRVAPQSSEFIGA
Protocol for EGFR^wt kinase: Then, the reaction was stopped by the addition of a detecting reagent (Kinase-Glo Max reagent), followed by incubation at room temperature for another 15 min. Finally, luminescence was measured using the microplate Robonik P2000 ELISA Reader.

As to `C[C@@H]1N[C@@H]2CCCCCCCC(=O)O[C@H]3CC[C@@H](CCCCCCCC(=O)O[C@H]1CC2)N[C@H]3C` [Compound 1, carpaine], the IC50 against EGFR^wt kinase came out at 0.0476 ± 0.0024 µM; on aromatase (CYP19A) it was 0.108 ± 0.00632 µM; in the assay on MCF-7 cell line (MCF7, 24 h), 13.7 ± 0.78 µM.

With `COC(=O)c1cc(O)c(O)c(O)c1` [Compound 2, methyl gallate], the results for the IC50 against EGFR^wt kinase, at aromatase (CYP19A) (setting [1]) and in the assay with MCF-7 cell line (setting [2]) were 0.0373 ± 0.0019 µM, 0.0941 ± 0.00551 µM and 1.11 ± 0.06 µM, respectively.

`CC1(C)C[C@H](O)C[C@@]2(C)OC(=O)C=C12` [Compound 3, loliolide]: the IC50 stood at 0.0688 ± 0.0035 µM at EGFR^wt kinase, 0.208 ± 0.0122 µM on aromatase (CYP19A) (setting [1]) and 28.2 ± 1.61 µM in the assay with MCF-7 cell line (setting [2]).

For `C[C@@H]1O[C@@H](OC[C@H]2O[C@@H](Oc3c(-c4ccc(O)c(O)c4)oc4cc(O)cc(O)c4c3=O)[C@H](O)[C@@H](O)[C@@H]2O)[C@H](O)[C@H](O)[C@H]1O` [Compound 4, quercetin-3-O-rutinoside], the IC50 turned out to be 0.0445 ± 0.0023 µM against EGFR^wt kinase, 0.148 ± 0.00864 µM on aromatase (CYP19A) (setting [1]) and 25.6 ± 1.46 µM with MCF-7 cell line (setting [2]).

As to `C[C@@H]1O[C@@H](OC[C@H]2O[C@@H](Oc3c(-c4ccc(O)cc4)oc4cc(O)cc(O)c4c3=O)[C@H](O[C@@H]3O[C@@H](C)[C@H](O)[C@@H](O)[C@H]3O)[C@@H](O)[C@@H]2O)[C@H](O)[C@H](O)[C@H]1O` [Compound 5, kaempferol 3-O-(2′′,6′′-di-α-O-rhamnopyranosyl)-β-glucopyranoside], the IC50 against EGFR^wt kinase amounted to 0.0896 ± 0.0046 µM; at aromatase (CYP19A) (setting [1]), 0.0774 ± 0.00453 µM; in the assay on MCF-7 cell line (setting [2]) it was 2.47 ± 0.14 µM.

For `C[C@@H]1O[C@@H](O[C@H]2[C@H](Oc3c(-c4ccc(O)cc4)oc4cc(O)cc(O)c4c3=O)O[C@H](CO)[C@@H](O)[C@@H]2O)[C@H](O)[C@H](O)[C@H]1O` [Compound 6, kaempferol 3-O-(2′′-O-α-L-rhamnopyranosyl)-β-D-glucopyranoside], the IC50 against EGFR^wt kinase was 0.0645 ± 0.0033 µM; on aromatase (CYP19A) (setting [1]) it was 0.335 ± 0.0196 µM; in the assay with MCF-7 cell line (setting [2]), 3.58 ± 0.2 µM.

On to `O=c1c(O[C@@H]2O[C@H](CO)[C@@H](O)[C@H](O)[C@H]2O)c(-c2ccc(O)c(O)c2)oc2cc(O)cc(O)c12` [Compound 7, quercetin-3-O-β-D-glucopyranoside], for which the figures for the IC50 against EGFR^wt kinase, at aromatase (CYP19A) (setting [1]) and with MCF-7 cell line (setting [2]) were 0.0834 ± 0.0042 µM, 0.354 ± 0.0207 µM and 13.1 ± 0.75 µM, respectively.

In the case of `C[C@@H]1O[C@@H](OC[C@H]2O[C@@H](Oc3c(-c4ccc(O)cc4)oc4cc(O)cc(O)c4c3=O)[C@H](O)[C@@H](O)[C@@H]2O)[C@H](O)[C@H](O)[C@H]1O` [Compound 8, kaempferol-3-O-rutinoside], the IC50 stood at 0.0411 ± 0.0021 µM against EGFR^wt kinase, 0.0928 ± 0.00544 µM on aromatase (CYP19A) (setting [1]) and 4.94 ± 0.28 µM in the assay with MCF-7 cell line (setting [2]).

`COc1cc(-c2oc3cc(O)cc(O)c3c(=O)c2OC2OC(CO)C(O)C(O)C2O)ccc1O` [Compound 9, isorhamnetin 3-O-β-D-glucopyranoside]: the IC50 against EGFR^wt kinase came to 0.1 ± 0.0051 µM; on aromatase (CYP19A) (setting [1]), 0.436 ± 0.0256 µM; with MCF-7 cell line (setting [2]), 9.51 ± 0.54 µM.

In general, IC50 refers to the point on the concentration scale where inhibition reaches its midpoint.

(Values after PMC8985094, “Chemical constituents from Carica papaya Linn. leaves as potential cytotoxic, EGFR^wt and aromatase (CYP19A) inhibitors; a study supported by molecular docking” (RSC Advances, 2022).)
